From ChEMBL document CHEMBL3046755, “Synthesis and Herbicidal Activity of N-Alkyl-N-(substituted benzyl)-4-halo-2-alkenamides” (1999)
Active and inactive are the calls of the source. No cut-off for these calls is given here.

How the values were obtained:
[1] = test system: Echinochloa oryzicola; test: Light dependent herbicidal activity against Echinochloa oryzicola seedlings assessed as inhibition of seedlings growth at 10 ppm measured after 6 days post compound application under greenhouse conditions at 25 +/- 2 degC with day light; format: functional, organism-based
[2] = test system: Echinochloa oryzicola; test: Herbicidal activity against Echinochloa oryzicola seedlings assessed as induction of seedlings damage measured after 3 weeks post compound application through paddy water; format: functional
[3] = test system: Echinochloa oryzicola; test: Potency index, ratio of ED90 for chlomethoxyfen to ED90 for test compound for herbicidal activity against Echinochloa oryzicola seedling; format: functional
[4] = test system: Echinochloa oryzicola; test: Light dependent herbicidal activity against Echinochloa oryzicola seedlings assessed as inhibition of seedlings growth at 10 ppm measured after 6 days post compound application under greenhouse conditions at 25 +/- 2 degC under dark conditions; format: functional, organism-based

CCC(C)N(Cc1ccc(Cl)cc1)C(=O)/C=C/C(C)Cl (racemic)
growth inhibition (GI) [1]: Active
ED90 [2]: 375 gAi/ha

CC(Br)/C=C/C(=O)N(Cc1ccc(Cl)cc1)CC(C)C (racemic)
growth inhibition (GI) [1]: Active
ED90 [2]: 125 gAi/ha

CC(Cl)/C=C/C(=O)N(Cc1ccc(C#N)cc1)CC(C)C (mixture of isomers)
growth inhibition (GI) [1]: Active
ED90 [2]: 16 gAi/ha

CCOC(=O)c1cc(CN(CC(C)C)C(=O)/C=C/C(C)Cl)ccc1Cl (racemic)
growth inhibition (GI) [1]: Active
ED90 [2]: <16 gAi/ha

CC(Cl)/C=C/C(=O)N(Cc1ccc(Cl)cc1)C(C)C (racemic)
growth inhibition (GI) [1]: Active
ED90 [2]: 250 gAi/ha

CC(Cl)/C=C/C(=O)N(Cc1ccccc1C#N)CC(C)C (racemic)
growth inhibition (GI) [1]: Active
ED90 [2]: 250 gAi/ha

CC(Cl)/C=C/C(=O)N(Cc1cc(Cl)ccc1OS(C)(=O)=O)CC(C)C (racemic)
growth inhibition (GI) [1]: Active
ED90 [2]: >1000 gAi/ha

CCC(Br)/C=C/C(=O)N(Cc1ccc(Cl)cc1)CC(C)C (racemic)
ED90 [2]: 125 gAi/ha

CC(Cl)/C=C/C(=O)N(Cc1ccc(Cl)c([N+](=O)[O-])c1)CC(C)C (racemic)
growth inhibition (GI) [1]: Active
ED90 [2]: 31 gAi/ha

CC(Cl)/C=C/C(=O)N(Cc1cc(OS(C)(=O)=O)ccc1Cl)CC(C)C (racemic)
growth inhibition (GI) [1]: Active
ED90 [2]: 31 gAi/ha

COc1cc(Oc2ccc(Cl)cc2Cl)ccc1[N+](=O)[O-] [CHLOMETHOXYFEN]
ED90 [2]: 250 gAi/ha

CCCC(Cl)/C=C/C(=O)N(Cc1ccc(Cl)cc1)CC(C)C (racemic)
ED90 [2]: 500 gAi/ha

CCOc1cc(Oc2ccc(C(F)(F)F)cc2Cl)ccc1[N+](=O)[O-]
growth inhibition (GI) [1]: Active

CC(Cl)/C=C/C(=O)N(Cc1ccc([N+](=O)[O-])cc1)CC(C)C (racemic)
growth inhibition (GI) [1]: Active
ED90 [2]: 250 gAi/ha

CC(Cl)/C=C/C(=O)N(Cc1ccc(S(C)(=O)=O)cc1)CC(C)C (racemic)
growth inhibition (GI) [1]: Active
ED90 [2]: >1000 gAi/ha

CCCC(Br)/C=C/C(=O)N(Cc1ccc(Cl)cc1)CC(C)C (racemic)
ED90 [2]: 250 gAi/ha

COc1cc(Cl)ccc1CN(CC(C)C)C(=O)/C=C/C(C)Cl (racemic)
growth inhibition (GI) [1]: Active
ED90 [2]: 500 gAi/ha

CC(Cl)/C=C/C(=O)N(Cc1ccc(Cl)cc1OS(C)(=O)=O)CC(C)C (racemic)
growth inhibition (GI) [1]: Active
ED90 [2]: 500 gAi/ha

CCN(Cc1ccc(Cl)cc1)C(=O)/C=C/C(C)Cl (racemic)
growth inhibition (GI) [1]: Active
ED90 [2]: 250 gAi/ha

COc1cc(CN(CC(C)C)C(=O)/C=C/C(C)Cl)ccc1C#N (racemic)
growth inhibition (GI) [1]: Active
ED90 [2]: 16 gAi/ha

CC(Cl)/C=C/C(=O)N(Cc1ccc(C(=O)O)cc1)CC(C)C (racemic)
growth inhibition (GI) [1]: Active
ED90 [2]: >5000 gAi/ha

CCOC(=O)c1ccc(CN(CC(C)C)C(=O)/C=C/C(C)Cl)cc1 (racemic)
growth inhibition (GI) [1]: Active
ED90 [2]: 1000 gAi/ha

CC(Cl)/C=C/C(=O)N(Cc1ccc(Cl)c(OS(C)(=O)=O)c1)CC(C)C (racemic)
growth inhibition (GI) [1]: Active
ED90 [2]: 31 gAi/ha

CC(=O)Nc1ccc(CN(CC(C)C)C(=O)/C=C/C(C)Cl)cc1 (racemic)
growth inhibition (GI) [1]: Active
ED90 [2]: >5000 gAi/ha

CC(Cl)/C=C/C(=O)N(Cc1ccc(Cl)cc1)C1CCCCC1 (racemic)
growth inhibition (GI) [1]: Active
ED90 [2]: 31 gAi/ha

CCCOc1cc(CN(CC(C)C)C(=O)/C=C/C(C)Cl)ccc1Cl (racemic)
growth inhibition (GI) [1]: Active
ED90 [2]: 31 gAi/ha

CCCN(Cc1ccc(Cl)cc1)C(=O)/C=C/C(C)Cl (racemic)
growth inhibition (GI) [1]: Active
ED90 [2]: 125 gAi/ha

CC(Cl)/C=C/C(=O)N(Cc1ccc(C(F)(F)F)cc1)CC(C)C (racemic)
growth inhibition (GI) [1]: Active
ED90 [2]: 31 gAi/ha

CSc1ccc(CN(CC(C)C)C(=O)/C=C/C(C)Cl)cc1 (racemic)
growth inhibition (GI) [1]: Active
ED90 [2]: 250 gAi/ha

COc1cc(CN(CC(C)C)C(=O)/C=C/C(C)Cl)ccc1Cl (racemic)
growth inhibition (GI) [1]: Active
ED90 [2]: 16 gAi/ha

CCCCCCCCN(Cc1ccc(Cl)cc1)C(=O)/C=C/C(C)Cl (racemic)
growth inhibition (GI) [1]: Active
ED90 [2]: >5000 gAi/ha

CC(Cl)/C=C/C(=O)N(C)Cc1ccc(Cl)cc1 (racemic)
growth inhibition (GI) [1]: Active
ED90 [2]: 2000 gAi/ha

CCC(Cl)/C=C/C(=O)N(Cc1ccc(Cl)cc1)CC(C)C (racemic)
ED90 [2]: 16 gAi/ha

CC(Cl)/C=C/C(=O)N(Cc1ccc(Cl)cc1Cl)CC(C)C (racemic)
growth inhibition (GI) [1]: Active
ED90 [2]: 125 gAi/ha

C=CCN(Cc1ccc(Cl)cc1)C(=O)/C=C/C(C)Cl (racemic)
growth inhibition (GI) [1]: Active
ED90 [2]: 375 gAi/ha

CC(C)CN(Cc1ccc(Cl)cc1)C(=O)/C=C/CBr
ED90 [2]: >4000 gAi/ha

COc1ccc(Cl)cc1CN(CC(C)C)C(=O)/C=C/C(C)Cl (racemic)
growth inhibition (GI) [1]: Active
ED90 [2]: >1000 gAi/ha

CCCCCCC(Br)/C=C/C(=O)N(Cc1ccc(Cl)cc1)CC(C)C (racemic)
ED90 [2]: 5000 gAi/ha

CC(Cl)/C=C/C(=O)N(Cc1ccc(C(N)=O)cc1)CC(C)C (racemic)
growth inhibition (GI) [1]: Active
ED90 [2]: 500 gAi/ha

CC(Cl)/C=C/C(=O)N(Cc1ccc(Cl)cc1)C1CCCCCC1 (racemic)
growth inhibition (GI) [1]: Active
ED90 [2]: 62 gAi/ha

CC(I)/C=C/C(=O)N(Cc1ccc(Cl)cc1)CC(C)C (racemic)
growth inhibition (GI) [1]: Active
ED90 [2]: 250 gAi/ha

CCCCCCCCC(Br)/C=C/C(=O)N(Cc1ccc(Cl)cc1)CC(C)C (racemic)
ED90 [2]: >5000 gAi/ha

CCCCN(Cc1ccc(Cl)cc1)C(=O)/C=C/C(C)Cl (racemic)
growth inhibition (GI) [1]: Active
ED90 [2]: 31 gAi/ha

CC(Cl)/C=C/C(=O)N(Cc1ccc(Cl)cc1)CC(C)C (racemic)
growth inhibition (GI) [1]: Active
ED90 [2]: 16 gAi/ha
Ratio [3]: 10

CC(O)/C=C/C(=O)N(Cc1ccc(Cl)cc1)CC(C)C (racemic)
growth inhibition (GI) [1]: Active
ED90 [2]: >5000 gAi/ha

CC(Cl)/C=C/C(=O)N(CCC(C)C)Cc1ccc(Cl)cc1 (racemic)
growth inhibition (GI) [1]: Active
ED90 [2]: <16 gAi/ha

CC(Cl)/C=C/C(=O)N(Cc1ccc(C#N)cc1Cl)CC(C)C (mixture of isomers)
growth inhibition (GI) [1]: Active
ED90 [2]: <16 gAi/ha

CCCOc1ccc(Cl)c(CN(CC(C)C)C(=O)/C=C/C(C)Cl)c1 (racemic)
growth inhibition (GI) [1]: Active
ED90 [2]: 62 gAi/ha

Cc1ccc(CN(CC(C)C)C(=O)/C=C/C(C)Cl)cc1 (racemic)
growth inhibition (GI) [1]: Active
ED90 [2]: 125 gAi/ha

CCCCC(Br)/C=C/C(=O)N(Cc1ccc(Cl)cc1)CC(C)C (racemic)
ED90 [2]: 2500 gAi/ha

CC(Cl)/C=C/C(=O)N(Cc1ccc(C=O)cc1)CC(C)C (racemic)
growth inhibition (GI) [1]: Active
ED90 [2]: 1000 gAi/ha

COc1ccc(Cl)c(CN(CC(C)C)C(=O)/C=C/C(C)Cl)c1 (racemic)
growth inhibition (GI) [1]: Active
ED90 [2]: 31 gAi/ha

CC(Cl)/C=C/C(=O)N(Cc1ccccc1)CC(C)C (stereo not given)
growth inhibition (GI) [1]: Active
ED90 [2]: 125 gAi/ha

CC(Cl)/C=C/C(=O)N(Cc1cccc(C#N)c1)CC(C)C (racemic)
growth inhibition (GI) [1]: Active
ED90 [2]: 500 gAi/ha

CC(Cl)/C=C/C(=O)N(Cc1ccc(Cl)cc1)C(C)(C)C (racemic)
growth inhibition (GI) [1]: Active
ED90 [2]: >5000 gAi/ha

CC(C)CN(Cc1ccc(Cl)cc1)C(=O)/C=C/C(Br)C(C)C (racemic)
ED90 [2]: 250 gAi/ha

CC(Cl)/C=C/C(=O)N(Cc1cc(Cl)c(C#N)cc1Br)CC(C)C (racemic)
growth inhibition (GI) [1]: Active
ED90 [2]: <16 gAi/ha

CCCOCCN(C(=O)CCl)c1c(CC)cccc1CC
growth inhibition (GI) [4]: Active
